Test results reported in patent US9062046B2, “Substituted imidazoquinoline derivatives as kinase inhibitors” (Piramal Enterprises Limited, priority 2011, dated 2015).

Key:
PC3 (prostate cell line) = test: Cytotoxicity assay (propidium iodide assay), PC3; type: cell-based; details: Homo sapiens, PC-3; PC3 cells, 48 h treatment
How it was run: (§1)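 A2780 and PC3 cells, 3000/well, were treated with compound for 48 h after 18-24 h attachment. After washing, propidium iodide 7 μg/ml was added, followed by freeze-thaw at −70 °C and a fluorescence read. Viability was taken relative to untreated wells, with IC50 derived from the curves.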

[1] = tested on: A2780 (ovarian cell line); test: Cytotoxicity assay (propidium iodide assay), A2780; type: cell-based; details: Homo sapiens; A2780 cells, 48 h treatment
How it was run: as §1

p110α = target: T1, p110α (Homo sapiens, UniProt P42336); test: p110α radioactive lipid kinase assay (PI3Kα); type: biochemical; details: 25 μM ATP, 2 h at RT, read-out: IC50 in μM (PI3 kinase activity)
T1 construct: purchased Upstate Millipore
Method: Protocol for Kinase Assay (PI3Kα)
p110α Radioactive Lipid Kinase Assay
The assay was designed as in the reference, Journal of Biomolecular Screening, 2002, Vol. 7, No. 5, 441-450, the disclosure of which is incorporated by reference for the teaching of the assay.
The p110α biochemical assay was performed using a radioactive assay measuring the incorporation of ^32P into the p110α substrate, phosphatidylinsoitol (PI). For the generation of IC50 curves, the reaction was performed in a 96-well MaxiSorp plates. Plates were pre-coated with 4 μg/well of a 1:1 ratio of phosphatidylinositol (PI: Avanti #840042C) and phosphatidylserine (PS: Avanti #840032C) diluted in CHCl3. Equal amount of p110α (Upstate Millipore) protein was added to each well, containing reaction buffer (50 mM MOPSO pH7.0, 100 mM NaCl, 4 mM MgCl2, 0.1% (w/v) BSA) whereas, for negative control, only reaction buffer was added. Test compounds (referred to by example nos. in the following table 1) dissolved in DMSO were treated at nine-point dose responses. Reactions were initiated by the addition of 25 μM ATP solution containing 50 μCi/ml [γ-^32P]-ATP and incubated at RT for 2 h with gentle shaking. Reactions were finally terminated by the addition of 50 mM EDTA stock solution. Plates were washed 3 times with TBS buffer. The plates were air dried, Microscint 0 (Perkin Elmer) was added to each well and the plates were sealed. The radioactivity incorporated into the immobilized PI substrate was determined with Top Count (Perkin Elmer). Inhibition was calculated using the following equation: % inhibition=(Dcpm−Tcpm)/(Dcpm)×100 • Tcpm=^32P-cpm in presence of test compounds • Dcpm=^32P-cpm in DMSO control (enzyme control deducted) Results: IC50 values of test compounds for PI3 kinase activity is indicated in Table 1.

T1 sequence (P42336 whole entry, species assumed): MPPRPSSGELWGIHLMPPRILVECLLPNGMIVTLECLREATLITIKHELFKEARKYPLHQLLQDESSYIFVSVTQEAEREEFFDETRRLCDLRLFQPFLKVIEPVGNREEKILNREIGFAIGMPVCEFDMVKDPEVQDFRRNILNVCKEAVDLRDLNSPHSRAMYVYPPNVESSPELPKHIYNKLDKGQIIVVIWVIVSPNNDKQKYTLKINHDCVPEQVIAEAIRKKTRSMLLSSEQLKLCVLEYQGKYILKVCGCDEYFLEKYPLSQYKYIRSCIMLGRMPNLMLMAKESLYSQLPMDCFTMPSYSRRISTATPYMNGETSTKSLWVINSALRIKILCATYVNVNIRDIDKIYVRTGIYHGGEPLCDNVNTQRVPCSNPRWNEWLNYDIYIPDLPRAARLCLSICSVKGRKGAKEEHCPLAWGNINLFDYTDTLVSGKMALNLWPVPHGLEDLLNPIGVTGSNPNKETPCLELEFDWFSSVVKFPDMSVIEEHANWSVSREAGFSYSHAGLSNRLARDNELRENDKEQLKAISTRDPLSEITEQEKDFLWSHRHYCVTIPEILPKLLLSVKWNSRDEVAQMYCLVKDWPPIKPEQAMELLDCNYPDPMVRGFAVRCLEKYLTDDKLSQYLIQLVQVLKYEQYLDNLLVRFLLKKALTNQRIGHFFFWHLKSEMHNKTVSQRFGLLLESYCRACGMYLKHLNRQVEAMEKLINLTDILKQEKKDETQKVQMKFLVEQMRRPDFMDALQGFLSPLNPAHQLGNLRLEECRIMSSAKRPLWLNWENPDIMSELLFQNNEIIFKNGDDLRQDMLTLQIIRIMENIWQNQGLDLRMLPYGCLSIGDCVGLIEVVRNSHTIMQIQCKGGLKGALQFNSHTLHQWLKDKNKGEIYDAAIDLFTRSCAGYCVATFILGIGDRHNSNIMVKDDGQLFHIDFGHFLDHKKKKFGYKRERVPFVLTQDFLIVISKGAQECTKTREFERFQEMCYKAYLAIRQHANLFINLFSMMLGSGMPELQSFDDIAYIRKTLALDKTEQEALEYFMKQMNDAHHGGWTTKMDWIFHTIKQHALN
T1 sequence (P27986 whole entry partner, species assumed): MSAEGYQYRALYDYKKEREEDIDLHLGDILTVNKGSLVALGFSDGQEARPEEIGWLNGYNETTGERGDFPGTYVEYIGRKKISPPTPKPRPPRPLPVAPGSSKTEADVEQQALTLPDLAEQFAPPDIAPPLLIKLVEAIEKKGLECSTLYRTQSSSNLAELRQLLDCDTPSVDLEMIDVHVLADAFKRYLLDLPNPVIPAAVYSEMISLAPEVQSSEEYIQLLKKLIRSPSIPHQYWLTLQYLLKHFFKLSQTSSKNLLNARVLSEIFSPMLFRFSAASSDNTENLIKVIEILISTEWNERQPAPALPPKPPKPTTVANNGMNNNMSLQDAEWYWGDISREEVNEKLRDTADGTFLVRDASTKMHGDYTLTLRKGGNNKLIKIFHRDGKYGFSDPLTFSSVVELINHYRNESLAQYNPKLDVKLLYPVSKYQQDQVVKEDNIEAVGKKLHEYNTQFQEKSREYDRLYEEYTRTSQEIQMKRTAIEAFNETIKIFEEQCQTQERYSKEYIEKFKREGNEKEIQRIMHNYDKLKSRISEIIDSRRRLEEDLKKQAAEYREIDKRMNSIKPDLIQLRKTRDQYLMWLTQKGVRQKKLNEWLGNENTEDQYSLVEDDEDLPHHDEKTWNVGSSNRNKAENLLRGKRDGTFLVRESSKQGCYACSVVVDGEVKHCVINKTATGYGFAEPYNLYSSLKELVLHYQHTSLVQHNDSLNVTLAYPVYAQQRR

IC50 (p110α) [µM]	Structure (SMILES)	IC50 (PC3 (prostate cell line)) [µM]	IC50 [1] [µM]
0.01 to 1	Cn1c(=NC#N)n(-c2ccc(C(C)(C)C#N)nc2)c2c3cc(-c4ccc5cn[nH]c5c4)ccc3ncc21 [Example 77, N-(1-(6-(2-cyanopropan-2-yl)pyridin-3-yl)-8-(1H-indazol-6-yl)-3-methyl-1H-imidazo[4,5-c]quinolin-2(3H)-ylidene)cyanamide]	≤ 0.5	≤ 0.5
0.01 to 1	Cc1cc(-c2ccc3ncc4c(c3c2)n(-c2ccc(C(C)(C)C#N)nc2)c(=NC#N)n4C)cnc1F [Example 78, N-(1-(6-(2-cyanopropan-2-yl)pyridin-3-yl)-8-(6-fluoro-5-methylpyridin-3-yl)-3-methyl-1H-imidazo[4,5-c]quinolin-2(3H)-ylidene)cyanamide]	≤ 0.5	≤ 0.5
≤ 0.01	Cn1c(=NC#N)n(-c2ccc(C(C)(C)C#N)nc2)c2c3cc(-c4ccc5cc[nH]c5c4)ccc3ncc21 [Example 79, N-(1-(6-(2-cyanopropan-2-yl)pyridin-3-yl)-8-(1H-indol-6-yl)-3-methyl-1H-imidazo[4,5-c]quinolin-2(3H)-ylidene)cyanamide]	≤ 0.5	≤ 0.5
0.01 to 1	COc1ncc(-c2ccc3ncc4c(c3c2)n(-c2ccc(C(C)(C)C#N)nc2)c(=NC#N)n4C)cc1N [Example 95, N-(8-(5-amino-6-methoxypyridin-3-yl)-1-(6-(2-cyanopropan-2-yl)pyridin-3-yl)-3-methyl-1H-imidazo[4,5-c]quinolin-2(3H)-ylidene)cyanamide]	≤ 0.5	≤ 0.5
≤ 0.01	COc1ncc(-c2ccc3ncc4c(c3c2)n(-c2ccc(C(C)(C)C#N)nc2)c(=NC#N)n4C)cc1NS(=O)(=O)c1ccccc1 [Example 125, N-(5-(2-(cyanoimino)-1-(6-(2-cyanopropan-2-yl)pyridin-3-yl)-3-methyl-2,3-dihydro-1H-imidazo[4,5-c]quinolin-8-yl)-2-methoxypyridin-3-yl)benzenesulfonamide]	≤ 0.5	≤ 0.5
